Here are results for two compounds from ChEMBL document CHEMBL3769368, “Semi-synthesis and anti-tumor evaluation of novel 25-hydroxyprotopanaxadiol derivatives as apoptosis inducing agents” (Medchemcomm, 2015).

In assay [1] the test system is DU-145. Briefly: Induction of morphological changes in human DU145 cells assessed as decrease in cell size at 20 uM after 12 hrs by inverted microscopy. It counts as functional, cell-based.
In assay [2] the test system is DU-145. Briefly: Induction of morphological changes in human DU145 cells assessed as spherical cells at 20 uM after 12 hrs by inverted microscopy. In kind it is functional, cell-based.
Assay [3] in a line: Antiproliferative activity against human DU145 cells after 48 hrs by MTT assay. It counts as functional, cell-based. Particulars: DU-145, 48 h.
The nature of assay [4]: Antiproliferative activity against human PC3 cells after 48 hrs by MTT assay. In kind it is functional, cell-based. Particulars: PC-3, 48 h.
Assay [5] can be described thus: Antiproliferative activity against human BGC823 cells after 48 hrs by MTT assay. Particulars: BGC-823, 48 h. In kind it is functional, cell-based.
The nature of assay [6]: Antiproliferative activity against human alpha-2 cells after 48 hrs by MTT assay. It counts as functional, cell-based.
Assay [7] has as its system MDA-MB-231. Briefly: Antiproliferative activity against human MDA-MB-231 cells after 48 hrs by MTT assay. In kind it is functional, cell-based. Conditions: MDA-MB-231, 48 h.
The nature of assay [8]: Cytotoxicity against human IOSE-144 cells after 48 hrs by MTT assay. Conditions: IOSE-144, 48 h. It counts as cell-based.
The test system of assay [9] is DU-145. The assay is described as follows: Induction of morphological changes in human DU145 cells assessed as formation of bubble-shaped regions at 20 uM after 12 hrs by inverted microscopy. It counts as functional, cell-based.
Assay [10] concerns DU-145. Briefly: Induction of apoptosis in human DU145 cells assessed as chromatin nucleus condensation at 20 uM after 12 hrs by DAPI staining-based fluorescence microscopy. In kind it is functional, cell-based.
The subject of assay [11] is DU-145. The assay is described as follows: Induction of apoptosis in human DU145 cells assessed as formation of apoptotic bodies at 20 uM after 12 hrs by DAPI staining-based fluorescence microscopy. In kind it is functional, cell-based.
Assay [12] deals with DU-145. Briefly: Induction of cell cycle arrest in human DU145 cells assessed as accumulation at Sub G1 phase at 20 uM after 6 hrs by propidium iodide staining-based flow cytometry (reference value: 1.57 to 1.59%). It counts as functional.
Assay [13] deals with DU-145. The assay is described as follows: Induction of cell cycle arrest in human DU145 cells assessed as accumulation at Sub G1 phase at 20 uM after 12 hrs by propidium iodide staining-based flow cytometry (reference value: 1.57 to 1.59%). In kind it is functional.
Assay [14] deals with DU-145. The assay is described as follows: Induction of cell cycle arrest in human DU145 cells assessed as accumulation at Sub G1 phase at 20 uM after 3 hrs by propidium iodide staining-based flow cytometry (reference value: 1.57 to 1.59%). It counts as functional.
For assay [15], the system named is DU-145. Briefly: Induction of cell cycle arrest in human DU145 cells assessed as accumulation at Sub G1 phase at 20 uM after 18 hrs by propidium iodide staining-based flow cytometry (reference value: 1.57 to 1.59%). It counts as functional.

Structures are written as SMILES. Activity calls are given as the source filed them. The rule behind the calls is not given here. Bounds are passed on as bounds.

As for `CC(C)(O)CCC[C@@](C)(O)[C@H]1CC[C@]2(C)[C@@H]1[C@H](O)C[C@@H]1[C@@]3(C)CC[C@H](OC(=O)[C@@H](N)CCCNC(=N)N)C(C)(C)[C@@H]3CC[C@]12C`, the result in assay [1], in assay [2], in [9], in assay [10] and in assay [11] was Active. Also, the IC50 was 5.5 µM in assay [3]; 6.1 µM in [4]; 4.6 µM in assay [5]; 7.1 µM in [6]; 4.2 µM in [7]; > 100 µM in assay [8]. Moreover, the Activity in assay [12] is on record as 16.29%; in [13], 34.07%; in [14], 7.37%.
Turning to `CC(C)(O)CCC[C@@](C)(O)[C@H]1CC[C@]2(C)[C@@H]1[C@H](O)C[C@@H]1[C@@]3(C)CC[C@H](OC(=O)[C@@H](N)CCC(=O)O)C(C)(C)[C@@H]3CC[C@]12C`, the result in assay [1], in assay [2], in assay [9], in assay [10] and in assay [11] was Active. The IC50 in assay [3] is 6.5 µM; in assay [4] it was 9.9 µM; in assay [5], 6.9 µM; in assay [6] it was 6.2 µM; in assay [7], 4.2 µM; in assay [8], > 100 µM. Further, the values for the Activity in assay [12], in assay [13] and in assay [15] were 9.81%, 13.39% and 30.53%, respectively.
